Reference: patent publication US6338963B1, “Use of carbon monoxide dependent guanylyl cyclase modifiers to stimulate neuritogenesis” (NeoTherapeutics, Inc., priority 1994, dated 2002)
Marks after values point to notes of the source that are not given here.

What was measured:
S100β protein = assay: Western blot of astrocyte cytosolic proteins: S100β; assay type: cell-based, rat; conditions: 100 μM AIT-082
Swiss Webster mice = assay: Win-shift T-maze memory test, Swiss Webster mice; assay type: in vivo; conditions: for Win-shift Memory Test, Correct responses: 90-second inter-trial interval
Experimental: Male Swiss Webster mice six months (young adult) and eleven months (old) of age, obtained from the National Institute on Aging, were maintained in individual cages, on a […] light/dark cycle with continuous access to water. Food was limited so that the mice stabilized at 80% of free feeding weight. Mice were weighed and handled daily for one week. The win-shift model was run as described in the literature and consists of a T-maze in which the correct response alternates after each correct trial. The interval between trials is varied and allows for the determination of the longest period between trials that a subject can remember the correct response on the previous trial. This allows the measure of the duration of the memory trace. […] The reward goal box is alternated after each correct trial. Ten trials per mouse are run each day. […] The latency time to leave the start box is recorded as a measure of motivation, the running time (the time from leaving the start box to reaching the goal box) is recorded as a measure of performance, and the number of correct responses as a measure of memory.
The drugs used in this example are 4-((3-(1,6-dihydro-6-oxo-9-purin-9-yl)-1-oxopropyl)amino) benzoic acid (AIT-082), as an exemplary potassium salt, tacrine hydrochloride (tetrahydroaminoacridine, THA, Sigma Chemical Co., St. Louis, Mo.), and physostigmine, hemisulfate salt (PHY, Sigma Chemical Co., St. Louis, Mo.). The drugs were dissolved in saline and prepared fresh daily. All injections were made at a volume of 0.1 ml/10 grams body weight. When testing drug effects, intraperitoneal (i.p.) injections of AIT-082 or THA were made one hour prior to the start of testing. Due to its shorter duration of action, PHY was injected 30 minutes prior to testing. Control subjects receive a similar injection of saline (vehicle).
To determine the duration of the memory trace, subjects were administered drug or saline and 30 minutes (PHY) or 1 hour (AIT-082 or THA) later they were given a single reference run with the milk reward in both goal boxes. After the indicated inter-trial delay, subjects were returned to the start box and given the first test trial with the milk reward only in the goal box opposite to the one entered on the previous correct trial. The subjects were given 10 trials with the reward alternating only after correct responses.
To determine if tolerance to the biological effects of AIT-082 developed, drug or saline was administered daily for 18 days prior to the testing in the standard win-shift paradigm.

mice [1] = assay: Home cage locomotor activity; assay type: in vivo
Experimental: To measure home cage locomotor activity, the home cage was placed on a platform of an activity monitor (Stoelting Instruments). Home cage locomotor activity movements were recorded at one minute intervals for 15 minutes. Subjects received saline or AIT-082 and were returned to their home cages. Ten minutes after injection, the home cage was replaced on the platform of the activity monitor. Home cage locomotor activity movements were recorded at one minute intervals for 30 minutes. During the first five minutes, grooming activity was also monitored and recorded.

NT-3 mRNA = assay: RT-PCR of growth factor mRNA after T8 spinal cord hemisection: NT-3; assay type: in vivo, Wistar rats
38 isolated receptors = assay: Receptor ligand binding in vitro (Nova Labs)
mice [2] = assay: Prophylaxis of age-induced memory deficit (win-shift, monthly); assay type: in vivo; conditions: 30 mg/kg/day in drinking water from 14 months of age
Experimental: It has been observed that age-induced memory deficits typically begin to manifest themselves in mice between 14 and 16 months of age. Therefore, the treatment of mice was begun at 14 months of age with AIT-082 (30 mg/kg/day) in their drinking water. The animals were measured monthly for their memory using the win-shift foraging tests previously described.

BDNF mRNA = assay: RT-PCR of growth factor mRNA after T8 spinal cord hemisection: BDNF; assay type: in vivo, Wistar rats
rat cultured astrocytes = assay: Release of radioactively labeled adenine-based purines from rat cultured astrocytes; assay type: cell-based; conditions: 300 μM, 1 hour
Experimental: The experiments were carried out on cultured astrocytes of rat hippocampus at the fourth day in vitro (DIV), obtained from primary cultures replated in 35 mm Petri dishes ([…] cells/dish) and preloaded with [^3H]-adenosine (5×10^−8 M for a specific activity of 20.0 Ci/mM) for 30 minutes at 37° C.
The effect of AIT-082 on the proportional release of radioactively labeled adenine nucleosides and nucleotides from rat cultured astrocytes is shown in FIGS. 29A and 29B. Culture medium collected during the first hour of the release was analyzed by high performance liquid chromatography (HPLC) and the radioactivity associated with the different adenine compounds was measured and expressed as a percentage of the total radioactivity released. The results are shown for ATP, ADP, and AMP in FIG. 29A, and for adenosine, inosine, and hypoxanthine in FIG. 29B.

## O=C(CCn1cnc2c(=O)[nH]cnc21)Nc1ccc(C(=O)O)cc1 [AIT-082, N-4-carboxyphenyl-3-(6-oxohydropurin-9-yl)propanamide]
S100β protein
  ex novo synthesis of S100β protein: did not stimulate ex novo synthesis of S100β protein
Swiss Webster mice; AIT-082 0.5 mg/kg i.p.
  Win-shift Memory Test, Correct responses: 6.5* Correct responses/10 trials
Swiss Webster mice; AIT-082 30.0 mg/kg i.p.
  Win-shift Memory Test, Correct responses: 8.2* Correct responses/10 trials
Swiss Webster mice; AIT-082 30.0 mg/kg daily for 18 days prior to win-shift testing
  Tolerance: 7.6* Correct responses/10 trials
Swiss Webster mice; data not shown
  onset of action: 1 h
Swiss Webster mice; single dose of 60 mg/kg
  duration of action: more than seven days
Mice [1]; AIT dose 0.005 mg/kg
  Locomotor activity, Movements (mean ± S.D.) Post-drug: 1375 ± 563
Mice [1]; AIT dose 0.005 mg/kg, pre-drug minus post-drug
  Locomotor activity, Movements (mean ± S.D.) Difference: 509 ± 429
Mice [1]; AIT dose 0.05 mg/kg
  Locomotor activity, Movements (mean ± S.D.) Difference: 209 ± 340
  Locomotor activity, Movements (mean ± S.D.) Post-drug: 1508 ± 456
Mice [1]; AIT dose 0.5 mg/kg
  Locomotor activity, Movements (mean ± S.D.) Difference: 290 ± 435
  Locomotor activity, Movements (mean ± S.D.) Post-drug: 1320 ± 689
Mice [1]; AIT dose 30.0 mg/kg
  Locomotor activity, Movements (mean ± S.D.) Difference: 342 ± 267
  Locomotor activity, Movements (mean ± S.D.) Post-drug: 1098 ± 189
NT-3 mRNA; at the level of the lesion
  NT-3 mRNA level: no significant differences
NT-3 mRNA; caudal to lesion, 7 days
  NT-3 mRNA level: no significant effects
NT-3 mRNA; caudal to lesion, control animals, 3 days
  NT-3 mRNA level: decreased
38 isolated receptors
  inhibition of ligand binding: no activity
Mice [2]
  onset and severity of age-induced memory deficits: delayed the onset and severity of memory deficits
BDNF mRNA; at the level of the lesion
  BDNF mRNA level: no significant differences
BDNF mRNA; caudal to lesion, 7 days
  BDNF mRNA level: no significant effects
BDNF mRNA; rostral to lesion, 3 days, 20 mg/kg day in drinking water, sham-operated over lesion animals
  BDNF mRNA level: significantly increased
BDNF mRNA; rostral to lesion, 7 days, lesioned treated vs lesioned not treated
  BDNF mRNA level: significantly higher

## Nc1nc2c(ncn2[C@@H]2O[C@H](CO)[C@@H](O)[C@H]2O)c(=O)[nH]1 [guanosine]
Rat cultured astrocytes
  ADP, proportional release: (6.5 ± 0.7) percentage of the total [^3H]-purines released
  Adenosine, proportional release: (11.9 ± 0.8) percentage of the total [^3H]-purines released
  Inosine, proportional release: (36.0 ± 3.9) percentage of the total [^3H]-purines released
